Results reported in patent US20160000777A1, “METHODS OF USING HISTAMINE RECEPTOR AGONISTS AND ANTAGONISTS” (UNIVERSITY OF ROCHESTER, priority 2013, published 2016).

Legend:
pro-Filaggrin (pro-FLG) = conditions: FIG. 6
Procedure: Human keratinocytes were isolated from neonatal foreskin as previously described (Poumay et al., “Basal Detachment of the Epidermis Using Dispase: Tissue Spatial Organization and Fate of Integrin alpha 6 beta 4 and Hemidesmosomes,” J Invest Dermatol 102:111-7 (1994), which is hereby incorporated by reference in its entirety). PHK were cultured in Keratinocyte-SFM (Invitrogen/Gibco, Grand Island, N.Y.) with 5 ng/ml human recombinant Epidermal Growth Factor 1-53 (EGF 1-53), 50 μg/ml Bovine Pituitary Extract (BEP), 1% Pen/Strep, and 0.2% Amphotericin B (Invitrogen/Gibco). To induce terminal differentiation PHK were grown in DMEM (Invitrogen/Gibco) with 1% Pen/Strep and 0.2% Amphotericin B (Invitrogen/Gibco). Where it is indicated, 10% heat-inactivated bovine serum (Invitrogen) was added to the differentiation media. […] The protein concentration of all samples was determined by BCA (Pierce). […] TJ integrity was assessed by trans-epithelial electrical resistance (TEER) and paracellular fluorescein flux (permeability). […] Keratinocyte differentiation was assessed by examining filaggrin, loricrin and keratin 10 expression by Western blot. Expression of HRs were evaluated by qPCR in skin biopsies taken from lesional and nonlesional sites in AD subjects (n=6-8) and non-atopics (n=10).

[1] = test system: primary human keratinocytes (PHK); assay: Transepithelial electric resistance (TEER) in cultured primary human keratinocytes; assay type: cell-based
Procedure: (§1) PHK were cultured in Keratinocyte-SFM (Invitrogen/Gibco, Grand Island, N.Y.) with 5 ng/ml human recombinant Epidermal Growth Factor 1-53 (EGF 1-53), 50 μg/ml Bovine Pituitary Extract (BEP), 1% Pen/Strep, and 0.2% Amphotericin B (Invitrogen/Gibco). To induce terminal differentiation PHK were grown in DMEM (Invitrogen/Gibco) with 1% Pen/Strep and 0.2% Amphotericin B (Invitrogen/Gibco). Where it is indicated, 10% heat-inactivated bovine serum (Invitrogen) was added to the differentiation media. […] Briefly, TEER was measured using an EVOMX voltohmmeter (World Precision Instruments, Sarasota, Fla.). To evaluate the paracellular flux of PHK, 0.02% Fluorescein (FITC) Sodium (Fluka, St. Louis, Mo.) in PBS (Invitrogen/Gibco) was added to the upper chamber. Samples were collected from the lower chamber after 30 minutes incubation for PHK culture or 10 and 20 minutes for skin explant. For each experiment paracellular flux was normalized to an empty filter. […] TJ integrity was assessed by trans-epithelial electrical resistance (TEER) and paracellular fluorescein flux (permeability).

[2] = test system: primary human keratinocytes (PHK); assay: Paracellular fluorescein flux (permeability) in cultured primary human keratinocytes; assay type: cell-based; conditions: histamine 100 μM, P<0.001, n=9, 96 hrs, FIG. 2B
Procedure: as §1

human keratinocytes = conditions: cited from earlier work
human skin explant = conditions: ex-vivo epidermal explants, histamine 100 μM, 24 hr, P<0.05, n=3
Procedure: Briefly, TEER was measured using an EVOMX voltohmmeter (World Precision Instruments, Sarasota, Fla.). To evaluate the paracellular flux of PHK, 0.02% Fluorescein (FITC) Sodium (Fluka, St. Louis, Mo.) in PBS (Invitrogen/Gibco) was added to the upper chamber. Samples were collected from the lower chamber after 30 minutes incubation for PHK culture or 10 and 20 minutes for skin explant. For each experiment paracellular flux was normalized to an empty filter.
Skin samples were mounted on filter supports (Whatman Nuclepore Track-Etch Membrane; GE Healthcare Biosciences, Pittsburgh, Pa.) with the epidermal side oriented upward, and sandwiched between two sterile custom made Plexiglas discs with an opening of 3 mm and placed in modified Snapwell™ chambers (Corning, Corning, N.Y., USA). Samples were submerged in DMEM media and kept at 37° C., 5% CO2 for 30 min. Fresh media with histamine (10 or 100 μM) or media alone were then added to both sides of the transwell. TEER and Paracellular flux of fluorescein of skin explant were measured at 24 hr.

airway epithelial cells = conditions: cited from earlier work
ZO-1 = conditions: nasal and retinal epithelial cells, cited from earlier work

Structure (SMILES): O=C(O)COCCN1CCN(C(c2ccccc2)c2ccc(Cl)cc2)CC1 (centres unmarked) [Cetirizine]
- Prevention of histamine-mediated reduction of pro-FLG expression (pro-Filaggrin (pro-FLG); PHK co-treated with 100 μM histamine and 10 μM Cetirizine): prevented

Structure (SMILES): NCCc1c[nH]cn1 [histamine]
- TEER peak ([1]; PHK differentiated in DMEM serum free media, histamine 100 μM, 96 hours post-stimulation, n=4, FIG. 2C): significantly reduced TEER peak
- TEER, Mean Area under the curve (AUC) ([1]; PHK, histamine 10 and 100 μM, P<0.001, n=10, AUC of 0-120 h time points, FIG. 2A): dose dependent reduction of TEER
- pro-FLG expression (pro-Filaggrin (pro-FLG); PHK at day 5 post differentiation, 100 μM histamine, Western blot, n=4): significantly reduced
- Permeability to Fluorescein, Mean Fold of control (FOC) [2]: enhancement of permeability
- Expression of stratum corneum and granulosum barrier proteins (e.g. filaggrin, Loricrin, claudin1, occludin) (human keratinocytes): reduced the expression
- Fluorescein permeability flux, Fold of control (FOC) (human skin explant; 20 minutes time point, FIG. 3B): 1.3 fold
- TEER, Fold of control (FOC) (human skin explant; FIG. 3A): 0.7 fold
- TJ paracellular permeability (airway epithelial cells): enhance TJ paracellular permeability
- Expression of ZO-1 (ZO-1): reduce the expression

Structure (SMILES): COc1ccc(CN(CCN(C)C)c2ccccn2)cc1 [mepyriamine]
- Abrogation of histamine effect on ZO-1 expression (ZO-1; pretreatment with antagonist): at least partially abrogated
